Measured values from PubChem BioAssay (NCI).
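A five-concentration, 48-hour dose response in 96-well plates underlies each endpoint, interpolated linearly between surrounding concentrations. GI50 marks 50% less growth. Definition used: TGI = concentration required for complete inhibition of growth.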

Columns and labels:
Assay in all cases: inhibition of tumour cell growth, NCI panel, 48 h
NCI/ADR-RES ovarian = tested on: NCI/ADR-RES ovarian
PC-3 prostate = tested on: PC-3 prostate
SR leukemia = tested on: SR leukemia
LOX IMVI melanoma = tested on: LOX IMVI melanoma
HCT-116 colon = tested on: HCT-116 colon
MDA-MB-435 = tested on: MDA-MB-435
IGROV1 ovarian = tested on: IGROV1 ovarian
RXF 393 renal = tested on: RXF 393 renal
MOLT-4 leukemia = tested on: MOLT-4 leukemia
UACC-257 melanoma = tested on: UACC-257 melanoma
SK-MEL-28 melanoma = tested on: SK-MEL-28 melanoma
A549 NSCLC = tested on: A549 NSCLC
NCI-H226 lung = tested on: NCI-H226 lung
NCI-H522 lung = tested on: NCI-H522 lung
OVCAR-5 ovarian = tested on: OVCAR-5 ovarian
NCI-H23 lung = tested on: NCI-H23 lung
M14 melanoma = tested on: M14 melanoma
SNB-75 CNS = tested on: SNB-75 CNS
U251 CNS = tested on: U251 CNS
HOP-92 NSCLC = tested on: HOP-92 NSCLC
BT-549 breast = tested on: BT-549 breast
OVCAR-3 ovarian = tested on: OVCAR-3 ovarian
SF-268 CNS = tested on: SF-268 CNS
UACC-62 melanoma = tested on: UACC-62 melanoma
HOP-62 NSCLC = tested on: HOP-62 NSCLC
SN12C renal = tested on: SN12C renal
SF-539 CNS = tested on: SF-539 CNS
HCT-15 colon = tested on: HCT-15 colon
COLO 205 colon = tested on: COLO 205 colon
HT29 colon = tested on: HT29 colon
KM12 colon = tested on: KM12 colon
MCF7 breast = tested on: MCF7 breast
HS 578T breast = tested on: HS 578T breast
ACHN renal = tested on: ACHN renal
SNB-19 CNS = tested on: SNB-19 CNS
SK-MEL-5 melanoma = tested on: SK-MEL-5 melanoma
K-562 leukemia = tested on: K-562 leukemia
EKVX NSCLC = tested on: EKVX NSCLC
DU-145 prostate = tested on: DU-145 prostate
SK-MEL-2 melanoma = tested on: SK-MEL-2 melanoma
SF-295 CNS = tested on: SF-295 CNS
786-0 renal = tested on: 786-0 renal
HCC-2998 colon = tested on: HCC-2998 colon
OVCAR-8 ovarian = tested on: OVCAR-8 ovarian
CCRF-CEM leukemia = tested on: CCRF-CEM leukemia
SW-620 colon = tested on: SW-620 colon
HL-60(TB) leukemia = tested on: HL-60(TB) leukemia
SK-OV-3 ovarian = tested on: SK-OV-3 ovarian
OVCAR-4 ovarian = tested on: OVCAR-4 ovarian
MDA-MB-231 breast = tested on: MDA-MB-231 breast
NCI-H460 lung = tested on: NCI-H460 lung
TK-10 renal = tested on: TK-10 renal
RPMI-8226 leukemia = tested on: RPMI-8226 leukemia
UO-31 renal = tested on: UO-31 renal
CAKI-1 renal = tested on: CAKI-1 renal
T-47D breast = tested on: T-47D breast
MALME-3M melanoma = tested on: MALME-3M melanoma
A498 renal = tested on: A498 renal

For `COc1cccc(CCC2CCCN(c3cc(C)nc(N)n3)C2)c1` (stereo unspecified), the GI50 (NCI/ADR-RES ovarian) was 394 nM, the TGI (NCI/ADR-RES ovarian) was 5900 nM and the GI50 (PC-3 prostate) was 379 nM. It also gave a TGI (PC-3 prostate) of 14100 nM, a GI50 (SR leukemia) of 236 nM and a TGI (SR leukemia) of 4090 nM. The GI50 (LOX IMVI melanoma) was 609 nM, the TGI (LOX IMVI melanoma) was 7650 nM and the GI50 (HCT-116 colon) was 484 nM. It also gave a TGI (HCT-116 colon) of 11000 nM, a GI50 (MDA-MB-435) of 153 nM and a TGI (MDA-MB-435) of 404 nM. The GI50 (IGROV1 ovarian) was 666 nM, the TGI (IGROV1 ovarian) was 12800 nM and the GI50 (RXF 393 renal) was 368 nM. It also gave a TGI (RXF 393 renal) of 5870 nM, a GI50 (MOLT-4 leukemia) of 496 nM and a TGI (MOLT-4 leukemia) of 13200 nM. For the same compound, the GI50 (UACC-257 melanoma) was 1370 nM, the TGI (UACC-257 melanoma) was 17700 nM and the GI50 (SK-MEL-28 melanoma) was 1120 nM. The TGI (SK-MEL-28 melanoma) was 16000 nM, the GI50 (A549 NSCLC) was 722 nM and the TGI (A549 NSCLC) was 15200 nM. It also gave a GI50 (NCI-H226 lung) of 1910 nM, a TGI (NCI-H226 lung) of 19300 nM and a GI50 (NCI-H522 lung) of 289 nM. The TGI (NCI-H522 lung) was 3160 nM, the GI50 (OVCAR-5 ovarian) was 1540 nM and the TGI (OVCAR-5 ovarian) was 17700 nM. The GI50 (NCI-H23 lung) was 614 nM, the TGI (NCI-H23 lung) was 14000 nM and the GI50 (M14 melanoma) was 302 nM. For the same compound, the TGI (M14 melanoma) was 2600 nM, the GI50 (SNB-75 CNS) was 194 nM and the TGI (SNB-75 CNS) was 3460 nM. It also gave a GI50 (U251 CNS) of 413 nM, a TGI (U251 CNS) of 11400 nM and a GI50 (HOP-92 NSCLC) of 519 nM. The TGI (HOP-92 NSCLC) was 11600 nM, the GI50 (BT-549 breast) was 690 nM and the TGI (BT-549 breast) was 13500 nM. It also gave a GI50 (OVCAR-3 ovarian) of 242 nM, a TGI (OVCAR-3 ovarian) of 675 nM and a GI50 (SF-268 CNS) of 643 nM. It also gave a TGI (SF-268 CNS) of 12500 nM, a GI50 (UACC-62 melanoma) of 426 nM and a TGI (UACC-62 melanoma) of 5490 nM. The GI50 (HOP-62 NSCLC) was 434 nM, the TGI (HOP-62 NSCLC) was 6430 nM and the GI50 (SN12C renal) was 635 nM. For the same compound, the TGI (SN12C renal) was 11500 nM, the GI50 (SF-539 CNS) was 277 nM and the TGI (SF-539 CNS) was 1150 nM. For the same compound, the GI50 (HCT-15 colon) was 418 nM, the TGI (HCT-15 colon) was 12300 nM and the GI50 (COLO 205 colon) was 313 nM. The TGI (COLO 205 colon) was 1060 nM, the GI50 (HT29 colon) was 280 nM and the TGI (HT29 colon) was 1490 nM. For the same compound, the GI50 (KM12 colon) was 315 nM, the TGI (KM12 colon) was 12400 nM and the GI50 (MCF7 breast) was 292 nM. For the same compound, the TGI (MCF7 breast) was 11900 nM, the GI50 (HS 578T breast) was 418 nM and the TGI (HS 578T breast) was 16700 nM. For the same compound, the GI50 (ACHN renal) was 625 nM, the TGI (ACHN renal) was 14100 nM and the GI50 (SNB-19 CNS) was 521 nM. For the same compound, the TGI (SNB-19 CNS) was 16000 nM, the GI50 (SK-MEL-5 melanoma) was 333 nM and the TGI (SK-MEL-5 melanoma) was 1320 nM. It also gave a GI50 (K-562 leukemia) of 259 nM, a TGI (K-562 leukemia) of 10600 nM and a GI50 (EKVX NSCLC) of 558 nM. For the same compound, the TGI (EKVX NSCLC) was 27700 nM, the GI50 (DU-145 prostate) was 326 nM and the TGI (DU-145 prostate) was 11200 nM. It also gave a GI50 (SK-MEL-2 melanoma) of 435 nM, a TGI (SK-MEL-2 melanoma) of 8230 nM and a GI50 (SF-295 CNS) of 362 nM. For the same compound, the TGI (SF-295 CNS) was 10600 nM, the GI50 (786-0 renal) was 526 nM and the TGI (786-0 renal) was 11900 nM. It also gave a GI50 (HCC-2998 colon) of 1540 nM, a TGI (HCC-2998 colon) of 7520 nM and a GI50 (OVCAR-8 ovarian) of 531 nM. It also gave a TGI (OVCAR-8 ovarian) of 8930 nM, a GI50 (CCRF-CEM leukemia) of 340 nM and a TGI (CCRF-CEM leukemia) of 22200 nM. It also gave a GI50 (SW-620 colon) of 363 nM, a TGI (SW-620 colon) of 13700 nM and a GI50 (HL-60(TB) leukemia) of 251 nM. It also gave a TGI (HL-60(TB) leukemia) of 686 nM, a GI50 (SK-OV-3 ovarian) of 414 nM and a TGI (SK-OV-3 ovarian) of 11700 nM. For the same compound, the GI50 (OVCAR-4 ovarian) was 692 nM, the TGI (OVCAR-4 ovarian) was 19300 nM and the GI50 (MDA-MB-231 breast) was 1200 nM. For the same compound, the TGI (MDA-MB-231 breast) was 11500 nM, the GI50 (NCI-H460 lung) was 380 nM and the TGI (NCI-H460 lung) was 11600 nM. It also gave a GI50 (TK-10 renal) of 794 nM, a TGI (TK-10 renal) of 14800 nM and a GI50 (RPMI-8226 leukemia) of 348 nM. For the same compound, the TGI (RPMI-8226 leukemia) was 3130 nM, the GI50 (UO-31 renal) was 576 nM and the TGI (UO-31 renal) was 11900 nM. The GI50 (CAKI-1 renal) was 385 nM, the TGI (CAKI-1 renal) was 13400 nM and the GI50 (T-47D breast) was 238 nM. For the same compound, the TGI (T-47D breast) was 8260 nM, the GI50 (MALME-3M melanoma) was 527 nM and the TGI (MALME-3M melanoma) was 14900 nM. It also gave a GI50 (A498 renal) of 288 nM and a TGI (A498 renal) of 2510 nM.
